Test results taken from US7176205B2, “Bi-pyridinyl derivatives as NK-1 antagonists” (Hoffmann-La Roche Inc., priority 2005, dated 2007).
Converted amounts (≈) assume the structure as drawn.

Experiments:
Equilibrium solubility = format: physicochemical; conditions: citrate buffer, aqueous buffer, thermodynamic from solid; pH 4.2, 0.15 M Citrat-buffer, 21° C.
Procedure: Method Description Equilibrium Solubility
Equilibrium solubility values were determined at pH 4.2 (0.15 M Citrat-buffer). A known amount of drug, generally 1–2 mg, was added to 250 μl of buffer (glass tubes) and the resulting suspension was stirred for 2 h (21° C.), after 5 minutes of sonification. The pH of the solution was checked and corrected if necessary (in case of pH correction, the solution was once more shaken and equilibrated) and after 24 h the suspension was filtered through a 0.65-μm filter. The filtered solution was then assayed by HPLC to determine the drug concentration. In cases where the drug had completely dissolved in the buffer, the value for equilibrium solubility was assumed to be higher than the value determined by HPLC and was reported as such. Stock solutions (˜1 mg/ml) in DMSO were used in the preparation of a calibration curve in the related buffer using HPLC analytics.

human NK-1 receptor = biological target: T1, human NK-1 receptor (Homo sapiens, UniProt P25103); experiment: NK-1 receptor binding, [3H]substance P displacement; conditions: human NK-1 receptors in CHO cells, [3H]substance P 0.6 nM; read-out: pKi(NK-1) (converted)
T1 construct: expressed in transfected cells; host or cells: CHO cells infected using the Semliki virus expression system; membrane suspension
T1 sequence (P25103 whole entry): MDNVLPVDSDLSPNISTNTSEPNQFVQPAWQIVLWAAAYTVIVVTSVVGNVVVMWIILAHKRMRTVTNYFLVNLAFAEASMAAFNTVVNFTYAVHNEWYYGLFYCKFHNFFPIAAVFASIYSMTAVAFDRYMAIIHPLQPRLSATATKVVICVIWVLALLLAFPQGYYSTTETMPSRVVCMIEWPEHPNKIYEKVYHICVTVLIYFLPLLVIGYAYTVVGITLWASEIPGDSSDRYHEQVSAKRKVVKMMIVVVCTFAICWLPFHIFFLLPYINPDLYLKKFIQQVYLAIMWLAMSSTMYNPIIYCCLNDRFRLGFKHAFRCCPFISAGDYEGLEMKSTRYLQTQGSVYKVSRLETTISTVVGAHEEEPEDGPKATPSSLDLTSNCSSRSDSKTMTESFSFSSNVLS
Procedure: The affinity of test compounds for the NK-1 receptor was evaluated at human NK-1 receptors in CHO cells infected with the human NK-1 receptor (using the Semliki virus expression system) and radiolabelled with [^3H]substance P (final concentration 0.6 nM). Binding assays were performed in HEPES buffer (50 mM, pH 7.4) containing BSA (0.04%) leupeptin (8 μg/ml), MnCl2 (3 mM) and phosphoramidon (2 μM). Binding assays consisted of 250 μl of membrane suspension (1.25×10^5 cells/assay tube), […] of buffer of displacing agent and 125 μl of [^3H]substance P. Displacement curves were determined with at least seven concentrations of the compound. The assay tubes were incubated for 60 min at room temperature after which time the tube contents were rapidly filtered under vacuum through GF/C filters presoaked for 60 min with PEI (0.3%) with 2×2 ml washes of HEPES buffer (50 mM, pH 7.4). The radioactivity retained on the filters was measured by scintillation counting. All assays were performed in triplicate in at least 2 separate experiments.

solubility at 24 h (Equilibrium solubility) [µg/mL] | Ki (human NK-1 receptor) [nM] | Compound
495 (≈ 0.899 mM) | – | Cc1ccccc1-c1cc(N2CCN(C)CC2)ncc1C(=O)N(C)Cc1cc(C(F)(F)F)cc(C(F)(F)F)c1 [EP 1 035 115A1example 12, reference compound]
7500 (≈ 12.9 mM) | 1.1 | Cc1ncccc1-c1cc(N2CCN(C)CC2)ncc1N(C)C(=O)C(C)(C)c1cc(C(F)(F)F)cc(C(F)(F)F)c1 [Example 2, 2-(3,5-Bis-trifluoromethyl-phenyl)-N-methyl-N-[2-methyl-6′-(4-methyl-piperazin-1-yl)-[3,4′]bipyridinyl-3′-yl]-isobutyramide]
26 (≈ 0.0449 mM) | 0.977 | Cc1ccccc1-c1cc(N2CCN(C)CC2)ncc1N(C)C(=O)C(C)(C)c1cc(C(F)(F)F)cc(C(F)(F)F)c1 [EP 1 035 115A1example 14, reference compound]
13700 (≈ 24.8 mM) | 2.75 | Cc1ncccc1-c1cc(N2CCN(C)CC2)ncc1C(=O)N(C)Cc1cc(C(F)(F)F)cc(C(F)(F)F)c1 [Example 1, 2-Methyl-6′-(4-methyl-piperazin-1-yl)-[3,4′]bipyridinyl-3′-carboxylic acid (3,5-bis-trifluoromethyl-benzyl)-methyl-amide]
